Reference: patent publication US20250032446A1, “METHODS AND COMPOSITIONS FOR THE BIOSYNTHESIS AND USE OF DEMETHYLATED POLYMETHOXY FLAVONES” (RUTGERS, THE STATE UNIVERSITY OF NEW JERSEY, priority 2021, published 2025)

How the values were obtained:
[1] = Effect of pH of fermented media on extracted content of M2 and M3 (stability); assay type: physicochemical
Method: Lastly, the fermented media was adjusted to pH 2.0, 5.0, 6.5, 7.0, 8.0 and 10.0 using HCl or NaOH. Subsequently, 3 extractions were conducted, and the sample was dried, weighed and analyzed using HPLC. The amount of extracted metabolites were compared and used to evaluate the effect of pH on extraction.

[2] = MTT assay, post-confluent cells (mitotic clonal expansion); assay type: cell-based, mouse; conditions: mouse, post-confluent 3T3-L1 cells, percent of control, read-out: cell viability
Method: (§1) 3T3-L1 cells were seeded on 96-well plate at density of 1×10^4 cells/well and incubated overnight for cell attachment. For measuring pre-confluent cell proliferation, cells were cultivated for 36 hours and full MEME with or without nobiletin or M67N was used. For measuring post-confluent cell proliferation during first three days of differentiation, cells were switched to DM with different concentrations of nobiletin or M67N for 72 hours. At the end of each treatment, cells were washed with PBS three times. MTT ([…]) was added at concentration of 0.5 mg/mL to the cells. After a 3-hour incubation, the medium was decanted from each well and 150 μL DMSO was added to dissolve the formed formazan crystals on a shaker. When the crystal was completely dissolved, the absorbance at 570 nm was measured. Cell viability was interpreted as the percentage (%) of the readout of treated cells divided by that of control. Six repeats were carried out for each concentration.
(§2) 3T3-L1 cells were seeded on 96-well plate at density of 1×10^4 cells/well and were incubated overnight for cell attachment. For measuring pre-confluent cell proliferation, full MEME with or without nobiletin or 6-OH-nobiletin, or 7-OH-nobiletin was used and cells were cultivated for 36 hours. For measuring post-confluent cell proliferation during the first three days of differentiation, cells were treated after 2 days of confluence. Specifically, cells were switched to differentiation medium (DM) with different concentrations of targeted compounds for 24 hours. At the end of each treatment, cells were washed with PBS three times followed by the addition of 100 μL MTT at concentration of 0.5 mg/mL. After 3 hours' incubation, the medium in each well were decanted while 150 μL DMSO was added to dissolve the formed formazan crystals at a shaker. When the crystals were completely dissolved, the absorbance of at 590 nm was measured. Cell viability was interpreted as the percentage (%) of the readout of treated cells divided by that of control. Five repeats were carried out for each concentration.

[3] = test system: post-confluent 3T3-L1 cells; experiment: as above; assay type: cell-based, mouse; conditions: 5 μM to 25 μM
Method: as §1, §2

[4] = test system: 3T3-L1 cells; experiment: Flow cytometry with PI staining, cell cycle distribution; assay type: cell-based, mouse
Method: 3T3-L1 cells were seeded in six-well plates at a density of 3-5×10^5/well. After 2 days of confluency, cells were treated with DM in the absence or presence of several doses of nobiletin or […] for 24h. Both detached and adherent cells were harvested by trypsinization and washed with phosphate buffered saline (PBS). Cells were fixed with 70% ice cold ethanol and placed at 4° C. overnight. After removal of ethanol, cells were stained with propidium iodide containing RNAse ((Carlsbad, CA)) for 30 min in the dark. Fluorescence cells analysis was carried out by using an Accuri C6 flow cytometer. Data were processed using Flowjo_10 software. Each experiment was performed 3 times to reduce variance.

[5] = test system: FAS; experiment: Immunoblotting, FAS expression; assay type: cell-based, mouse; conditions: late phase treatment group, day 8
Method: (§3) Primary antibodies which include AMPK-amAb, and Phospho-AMPKa(p-AMPKa) (Thr172) mAb, Acetyl-CoA Carboxylase (ACC) mAb, fatty acid synthase mAb RAs-related Nuclear protein (Ran) pAb, PPARc mAb, and C/EBPa pAb were all obtained from Cell Signaling Technology (Danvers, MA, USA). They were diluted by 1000 times for immunoblotting analyses.
(§4) At day 3 or day 8, cells are harvested with scraper and homogenized with lysis buffer containing 0.5 mM PMSF, 1 mM mini-complete protease inhibitor cocktail (Sigma, St. Louis, MO, USA) and phosphatase inhibitor cocktail (Sigma, St. Louis, MO, USA). Lysates are syringed with 26 gauge ½ in. needles on ice and then applied for centrifugation at 14,000g for 15 min at 4° C. Protein concentration of cell lysates are determined by using Protein and Protein Broad Range (BR) Assay Kits (Thermofisher, Waltham, MA USA) according to the venture's protocol. Lysates are then stored at −80° C. or immediately are subjected to sodium dodecyl sulfate polyacrylamide gel electrophoresis (SDS-PAGE). For the SDS-PAGE, cell lysates are mixed with loading buffer and heated at 95° C. for 5 min prior to electrophoresis. […] Quantification is performed by measuring band intensity using ImageJ software and calculating the ratio of protein of interesting to RAN the internal loading control.

[6] = test system: ACC; experiment: Immunoblotting, ACC expression; assay type: cell-based, mouse; conditions: late phase treatment group, day 8
Method: as §3, §4

[7] = test system: AMPK; experiment: Immunoblotting, AMPK and p-AMPK; assay type: cell-based, mouse; conditions: early and terminal differentiation processes
Method: as §3, §4

COc1ccc(-c2cc(=O)c3c(OC)c(O)c(OC)c(OC)c3o2)cc1OC [6-OH-nobiletin, 6-hydroxy-5,7,8,3′,4′-pentamethoxyflavone]
total amount of extracted metabolite ([1]; fermented media at pH 2.0 (first of four values, pH 2.0 to 7.0)): 123.9 ± 4.6 µg/mL
total amount of extracted metabolite ([1]; fermented media at pH 5.0 (second of four values)): 125.6 ± 3.2 µg/mL
total amount of extracted metabolite ([1]; fermented media at pH 6.5 (third of four values)): 125.8 ± 1.9 µg/mL
total amount of extracted metabolite ([1]; fermented media at pH 7.0 (fourth of four values)): 125.9 ± 1.2 µg/mL
content of extracted metabolite ([1]; pH 8.0): 110 ± 1.7 µg/mL
stability at alkaline condition ([1]; pH 8.0 and 10.0): not stable at alkaline condition
content of extracted metabolite ([1]; pH 10.0): 109 ± 2.6 µg/mL
viability at 24 h, 35 µM ([2]; 35 μM): 83.1 ± 6.2%
viability at 24 h, 50 µM ([2]; 50 μM): 85.6 ± 5.3%
change of cell viability [3]: no significant difference
cells in S phase ([4]; 5 μM): 42%
preadipocytes in G2/M phase ([4]; 5 μM): 40%
population in G2/M phase ([4]; 50 μM): 20%
population in S phase ([4]; 50 μM): 60%
effect on cell cycle progression ([4]; serial doses in differentiation medium): significantly delayed the progression of the cell cycle and increased the S population in a dose-dependent manner
expression of FAS [5]: significantly suppressed their expression
expression of ACC [6]: significantly suppressed their expression
expression and phosphorylation of AMPK [7]: greatly enhanced
